From patent US10155768B2, “Fused pyrimidine compound or salt thereof” (TAIHO PHARMACEUTICAL CO., LTD., priority 2016, dated 2018)

Assay: Evaluation of stability in liver microsome
Settings: mouse liver microsome 0.25 mg/mL, 1 μM test compound, 37° C. for 30 minutes

SMILES	Remaining (%)
COCc1ccc(NC(=O)c2cn(C(C)(C)C(F)F)c3ncnc(N)c23)cc1 [Example 50, 4-amino-7-(1,1-difluoro-2-methylpropan-2-yl)-N-(4-(methoxymethyl)phenyl)-7H-pyrrolo[2,3-d]pyrimidine-5-carboxamide]	53%
COCc1ccc(NC(=O)c2c(-c3cccnc3)n(C3(C)CC3)c3ncnc(N)c23)cc1 [Example 61, 4-amino-N-(4-(methoxymethyl)phenyl)-7-(1-methylcyclopropyl)-6-(pyridin-3-yl)-7H-pyrrolo[2,3-d]pyrimidine-5-carboxamide]	81%
COCc1ccc(NC(=O)c2c(C#Cc3cncn3C)n(C3(C)CC3)c3ncnc(N)c23)cc1 [Example 93, 4-amino-N-(4-(methoxymethyl)phenyl)-6-((1-methyl-1H-imidazol-5-yl)ethynyl)-7-(1-methylcyclopropyl)-7H-pyrrolo[2,3-d]pyrimidine-5-carboxamide]	53%
COCc1ccc(NC(=O)c2c(C(C)=O)n(C3(C)CC3)c3ncnc(N)c23)cc1 [Example 64, 6-acetyl-4-amino-N-(4-(methoxymethyl)phenyl)-7-(1-methylcyclopropyl)-7H-pyrrolo[2,3-d]pyrimidine-5-carboxamide]	89%
CCn1nccc1C#Cc1c(C(=O)Nc2ccc(COC)cc2)c2c(N)ncnc2n1C1(C)CC1 [Example 114, 4-amino-6-((1-ethyl-1H-pyrazol-5-yl)ethynyl)-N-(4-(methoxymethyl)phenyl)-7-(1-methylcyclopropyl)-7H-pyrrolo[2,3-d]pyrimidine-5-carboxamide]	55%
COCc1ccc(NC(=O)c2cn(C(C)(C)C)c3ncnc(N)c23)cc1 [Example 2, 4-amino-7-(tert-butyl)-N-(4-(methoxymethyl)phenyl)-7H-pyrrolo[2,3-d]pyrimidine-5-carboxamide]	64%
COCc1ccc(NC(=O)c2cn(C(C)(C)CF)c3ncnc(N)c23)cc1F [Example 41, 4-amino-7-(1-fluoro-2-methylpropan-2-yl)-N-(3-fluoro-4-(methoxymethyl)phenyl)-7H-pyrrolo[2,3-d]pyrimidine-5-carboxamide]	56%
COCc1ccc(NC(=O)c2c(C#CCN3CCCCC3)n(C3(C)CC3)c3ncnc(N)c23)cc1 [Example 105, 4-amino-N-[4-(methoxymethyl)phenyl]-7-(1-methylcyclopropyl)-6-(3-(piperidin-1-yl)prop-1-yn-1-yl)-7H-pyrrolo[2,3-d]pyrimidine-5-carboxamide]	52%
COCc1ccc(NC(=O)c2c(OCC3CCCCO3)n(C3(C)CC3)c3ncnc(N)c23)cc1 (stereo not drawn) [Example 102, 4-amino-N-(4-(methoxymethyl)phenyl)-7-(1-methylcyclopropyl)-6-((tetrahydro-2H-pyran-2-yl)methoxy)-7H-pyrrolo[2,3-d]pyrimidine-5-carboxamide]	60%
COCc1ccc(NC(=O)c2c(OC[C@@H](C)OC)n(C3(C)CC3)c3ncnc(N)c23)cc1 [Example 96, (R)-4-amino-N-(4-(methoxymethyl)phenyl)-6-(2-methoxypropoxy)-7-(1-methylcyclopropyl)-7H-pyrrolo[2,3-d]pyrimidine-5-carboxamide]	71%
COCc1ccc(NC(=O)c2c(C)n(C(C)(C)C)c3ncnc(N)c23)cc1 [Example 60, 4-amino-7-(tert-butyl)-N-(4-(methoxymethyl)phenyl)-6-methyl-7H-pyrrolo[2,3-d]pyrimidine-5-carboxamide]	81%
COCc1ccc(NC(=O)c2c(C#Cc3cnc4cccnn34)n(C3(C)CC3)c3ncnc(N)c23)cc1 [Example 91, 4-amino-6-(imidazo[1,2-b]pyridazin-3-ylethynyl)-N-[4-(methoxymethyl)phenyl]-7-(1-methylcyclopropyl)-7H-pyrrolo[2,3-d]pyrimidine-5-carboxamide]	65%
COCc1ccc(NC(=O)c2c(/C=C/CO)n(C3(C)CC3)c3ncnc(N)c23)cc1 [Example 109, (E)-4-amino-6-(3-hydroxyprop-1-en-1-yl)-N-(4-(methoxymethyl)phenyl)-7-(1-methylcyclopropyl)-7H-pyrrolo[2,3-d]pyrimidine-5-carboxamide]	68%
COCc1ccc(NC(=O)c2c(OC[C@@H]3CCCO3)n(C3(C)CC3)c3ncnc(N)c23)cc1 [Example 97, (S)-4-amino-N-(4-(methoxymethyl)phenyl)-7-(1-methylcyclopropyl)-6-((tetrahydrofuran-2-yl)methoxy)-7H-pyrrolo[2,3-d] pyrimidine-5-carboxamide]	70%
COCc1ccc(NC(=O)c2cn(C(C)(C)C)c3ncnc(N)c23)c(OC)c1 [Example 33, 4-amino-7-(tert-butyl)-N-(2-methoxy-4-(methoxymethyl)phenyl)-7H-pyrrolo[2,3-d]pyrimidine-5-carboxamide]	57%

Continued, values first:

Remaining (%)	SMILES
67%	COCc1ccc(NC(=O)c2c(OCC3CCCO3)n(C3(C)CC3)c3ncnc(N)c23)cc1 (stereo not drawn) [Example 135, 4-amino-N-(4-(methoxymethyl)phenyl)-7-(1-methylcyclopropyl)-6-((tetrahydrofuran-2-yl)methoxy)-7H-pyrrolo[2,3-d]pyrimidine-5-carboxamide]
85%	COCc1ccc(NC(=O)c2c(C#Cc3ccc4c(c3)NCCO4)n(C3(C)CC3)c3ncnc(N)c23)cc1 [Example 158, 4-amino-6-((3,4-dihydro-2H-benzo[b][1,4]oxazin-6-yl)ethynyl)-N-(4-(methoxymethyl)phenyl)-7-(1-methylcyclopropyl)-7H-pyrrolo[2,3-d]pyrimidine-5-carboxamide]
77%	COCc1ccc(NC(=O)c2c(C#CCN3CCOCC3)n(C3(C)CC3)c3ncnc(N)c23)cc1F [Example 206, 4-amino-N-(3-fluoro-4-(methoxymethyl)phenyl)-7-(1-methylcyclopropyl)-6-(3-morpholinoprop-1-yn-1-yl)-7H-pyrrolo[2,3-d]pyrimidine-5-carboxamide]
54%	COCc1ccc(NC(=O)c2c(C#Cc3ccn[nH]3)n(C3(C)CC3)c3ncnc(N)c23)cc1 [Example 129, 6-((1H-pyrazol-5-yl)ethynyl)-4-amino-N-(4-(methoxymethyl)phenyl)-7-(1-methylcyclopropyl)-7H-pyrrolo[2,3-d]pyrimidine-5-carboxamide]
78%	COCc1ccc(NC(=O)c2c(OCCN3CCCC3=O)n(C3(C)CC3)c3ncnc(N)c23)cc1 [Example 136, 4-amino-N-(4-(methoxymethyl)phenyl)-7-(1-methylcyclopropyl)-6-(2-(2-oxopyrrolidin-1-yl)ethoxy)-7H-pyrrolo[2,3-d]pyrimidine-5-carboxamide]
77%	COCc1ccc(NC(=O)c2c(C#CC3CCN(C)CC3)n(C3(C)CC3)c3ncnc(N)c23)cc1 [Example 183, 4-amino-N-(4-(methoxymethyl)phenyl)-7-(1-methylcyclopropyl)-6-((1-methylpiperidin-4-yl)ethynyl)-7H-pyrrolo[2,3-d]pyrimidine-5-carboxamide]
55%	COCc1ccc(NC(=O)c2c(C#CC3(O)CCCC3)n(C3(C)CC3)c3ncnc(N)c23)cc1 [Example 131, 4-amino-6-((1-hydroxycyclopentyl)ethynyl)-N-(4-(methoxymethyl)phenyl)-7-(1-methylcyclopropyl)-7H-pyrrolo[2,3-d]pyrimidine-5-carboxamide]
58%	COCc1ccc(NC(=O)c2c(C#Cc3c(C)noc3C)n(C3(C)CC3)c3ncnc(N)c23)cc1 [Example 184, 4-amino-6-((3,5-dimethylisoxazol-4-yl)ethynyl)-N-(4-(methoxymethyl)phenyl)-7-(1-methylcyclopropyl)-7H-pyrrolo[2,3-d]pyrimidine-5-carboxamide]
53%	COCc1ccc(NC(=O)c2c(OCC(C)(C)OC)n(C3(C)CC3)c3ncnc(N)c23)cc1 [Example 137, 4-amino-6-(2-methoxy-2-methylpropoxy)-N-(4-(methoxymethyl)phenyl)-7-(1-methylcyclopropyl)-7H-pyrrolo[2,3-d]pyrimidine-5-carboxamide]
66%	COCc1ccc(NC(=O)c2c(C#Cc3cncc(F)c3)n(C3(C)CC3)c3ncnc(N)c23)cc1 [Example 175, 4-amino-6-((5-fluoropyridin-3-yl)ethynyl)-N-(4-(methoxymethyl)phenyl)-7-(1-methylcyclopropyl)-7H-pyrrolo[2,3-d]pyrimidine-5-carboxamide]
77%	COCc1ccc(NC(=O)c2c(-c3ccc(N4CCN(C)CC4)cc3)n(C3(C)CC3)c3ncnc(N)c23)cc1 [Example 171, 4-amino-N-(4-(methoxymethyl)phenyl)-7-(1-methylcyclopropyl)-6-(4-(4-methylpiperazin-1-yl)phenyl)-7H-pyrrolo[2,3-d]pyrimidine-5-carboxamide]
79%	COCc1ccc(NC(=O)c2c(C#Cc3ccc(OC)nc3)n(C3(C)CC3)c3ncnc(N)c23)cc1 [Example 192, 4-amino-N-(4-(methoxymethyl)phenyl)-6-((6-methoxypyridin-3-yl)ethynyl)-7-(1-methylcyclopropyl)-7H-pyrrolo[2,3-d]pyrimidine-5-carboxamide]
88%	COCc1ccc(NC(=O)c2c(C#CCN3CC[S+]([O-])CC3)n(C3(C)CC3)c3ncnc(N)c23)cc1 [Example 178, 4-amino-N-(4-(methoxymethyl)phenyl)-7-(1-methylcyclopropyl)-6-(3-(1-oxidethiomorpholino)prop-1-yn-1-yl)-7H-pyrrolo[2,3-d]pyrimidine-5-carboxamide]
72%	COCc1ccc(NC(=O)c2c(C#CC(C)(C)O)n(C3(C)CC3)c3ncnc(N)c23)cc1 [Example 174, 4-amino-6-(3-hydroxy-3-methylbut-1-yn-1-yl)-N-(4-(methoxymethyl)phenyl)-7-(1-methylcyclopropyl)-7H-pyrrolo[2,3-d]pyrimidine-5-carboxamide]
74%	COCc1ccc(NC(=O)c2c(C#CCC3(O)COC3)n(C3(C)CC3)c3ncnc(N)c23)cc1 [Example 125, 4-amino-6-(3-(3-hydroxyoxetan-3-yl)prop-1-yn-1-yl)-N-(4-(methoxymethyl)phenyl)-7-(1-methylcyclopropyl)-7H-pyrrolo[2,3-d]pyrimidine-5-carboxamide]
